Test results as given in PMC11094793, “Discovery of LLC0424 as a Potent and Selective in Vivo NSD2 PROTAC Degrader” (Journal of Medicinal Chemistry, 2024).
Values belong to the compound of their own block, whether it stands above or below them.

Legend:
RPMI-8402 cells [1] = experiment: Colony formation in soft agar; format: cell-based, human; settings: 2 μM, 30 days, INT staining
Method: Colony formation in soft agar was conducted in 12-well plates, with the bottom layer containing 750 μL of 0.8% agarose in 10% FBS/cell media and the top layer containing 0.4% agarose (SEM cells or RPMI-8402 cells). LLC0424 was added every 3 days to the liquid layer on top agarose to reach a final concentration of 2 μM. At the 30 days of treatment, the cells were stained with iodonitrotetrazolium chloride (INT) by adding 500 μL 1× INT PBS solution into each well. After the staining, images were taken using brightfield microscope and plate scan was conducted using Epson Perfection V700 Photo. Colony number counting was performed using ImageJ.

RPMI-8402 cells [2] = experiment: Cell viability assay (CellTiter-Glo, 7 days), RPMI-8402; format: cell-based, human
Method: (§1) Cells were plated in 50 μL of the corresponding media in 96-well plates. A 2-fold dilution series of 2* concentrated LLC0424 was prepared in a medium with the highest concentration being 60 μM. Then 50 μL of the 2× compound-containing mixture was added to each well with 6 replicates for each concentration, reaching 1× concentration, with the highest concentration being 30 μM. The plate was incubated for 7 days. At the end point, the CellTiter-Glo assay (Promega) was then performed according to the manufacturer’s instruction to determine cell proliferation. The luminescence signal intensity of each well was acquired on an Infinite M1000Pro microplate reader and the data was analyzed using GraphPad Prism software (GraphPad Software).

[3] = biological target: T1, NSD2 (both long and short isoforms) (Homo sapiens, UniProt O96028); experiment: NSD2 degradation by immunoblotting in ALL cell lines RPMI-8402 and SEM (NSD2 E1099K); format: cell-based
T1 sequence (O96028 211-350 limits assumed): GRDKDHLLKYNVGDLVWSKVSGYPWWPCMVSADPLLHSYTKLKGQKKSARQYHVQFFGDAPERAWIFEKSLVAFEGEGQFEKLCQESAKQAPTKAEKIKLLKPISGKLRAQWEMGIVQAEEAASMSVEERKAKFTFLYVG
Method: As previous studies have shown that ALL cell lines with NSD2 gain-of-function mutation are more dependent on NSD2 regarding H3K36me2 level and cell proliferation,[7],[8] we further characterized LLC0424 in ALL cell lines with NSD2 E1099K gain-of-function mutation (RPMI-8402 and SEM). We first treated these cells with LLC0424 with different concentrations for 24 h. […] In addition, we compared the degradation efficiency of LLC0424 with the two previously published NSD2 degraders 6 and 7 at different concentrations and time points.
(§2) After treatment, the cultured cells were collected and rinsed with phosphate-buffered saline (PBS) in room temperature. The cells were treated with RIPA buffers (ThermoFisher Scientific) supplemented with Halt Protease and Phosphatase Inhibitor Cocktail (ThermoFisher Scientific). After sonication and centrifugation, the total amount of protein in the cell lysates was measured by Pierce Bovine Serum Albumin Standard Pre-Diluted Set (ThermoFisher Scientific). After mixed with LDS-sample buffer (Invitrogen) supplemented with Sample Reducing Agent (Invitrogen) and heated in 70 °C for 10 min, equal amount of protein was loaded into NuPAGE 4–12%, Bis-Tris Protein Gel (ThermoFisher Scientific) or NuPAGE 3–8%, Tris-Acetate Protein Gel (ThermoFisher Scientific), and blotted with primary antibodies. After incubated with HRP-conjugated secondary antibodies, the membranes were developed with ECL Prime Western Blotting Detection Reagent (cytiva) and imaged on Odyssey Fc Imager (LiCOR Biosciences).

SEM cells [4] = experiment: RNA-seq global transcriptome analysis; format: cell-based, human; settings: 14 days of treatment, versus DMSO
Method: NSD2 is the primary methyltransferase that transfers dimethyl to H3K36 in ALL with NSD2 gain-of-function mutation. Therefore, the effects of LLC0424 on H3K36me2 was evaluated in SEM and RPMI-8402 cells. […] Meanwhile, LLC0424 treatment also led to downregulation of H3K36Me2 in RPMI-8402 cells within 24 h (Figure 6B). […] We also conducted a colony formation assay to evaluate the effect of LLC0424 on the stem cell-like property of the leukemia cells. […] As LLC0424 leads to strong degradation of both NSD2-L and NSD2-S, the phenotypic changes upon LLC0424 treatment result from complete inactivation of NSD2 activity, including adaptor-like function of NSD2-S and SET-domain dependent enzymatic function of NSD2-L. The specific contributions of NSD2 isoforms warrant future investigation. To characterize the genes affected by LLC0424 treatment, we performed global transcriptome analysis of SEM cells treated by DMSO, LLC0424, or LLC0424N. […]
Total RNA was isolated from cells using the miRNeasy Mini Kit (Qiagen). […] Paired-end libraries were sequenced with the Illumina HiSeq 2500 (2 × 100 nucleotide read length) with sequence coverage to 15–20 M paired reads. […] Then we performed the analysis in R. First, EdgeR (edgeR_3.39.6) was used to perform read counts normalization and filtering (counts >10) and then Limma-Voom (limma_3.53.10) was used to analyze differential expression.

SEM cells [5] = experiment: Cell viability assay (CellTiter-Glo, 7 days), SEM; format: cell-based, human
Method: as §1

GSPT1 = biological target: T2, GSPT1 (Homo sapiens, UniProt P15170); experiment: GSPT1 level by proteomics and immunoblotting; format: cell-based; settings: SI Figure S5B, SEM cells
T2 construct: endogenous in cells; host or cells: RPMI-8402, SEM, VCaP
Method: We conducted a global proteomic assay using tandem mass tags (TMT) labeled mass-spectrometry to unbiasedly quantify the protein change upon LLC0424 treatment in VCaP and RPMI-8402 cells. […] We further used SEM cell line to cross-validate the selectivity of LLC0424 for NSD2 over NSD1 and NSD3 as well as CRBN neo-substrates IKZF1, IKZF3, GSPT1, and CK-1α using immunoblotting. […] When we increased the treatment time of LLC0424 in SEM cells, we observed mild decrease of GSPT1 from 12 h (SI, Figure S3F).
NSD2 is the primary methyltransferase that transfers dimethyl to H3K36 in ALL with NSD2 gain-of-function mutation. Therefore, the effects of LLC0424 on H3K36me2 was evaluated in SEM and RPMI-8402 cells. […] Meanwhile, LLC0424 treatment also led to downregulation of H3K36Me2 in RPMI-8402 cells within 24 h (Figure 6B). […] We also conducted a colony formation assay to evaluate the effect of LLC0424 on the stem cell-like property of the leukemia cells. […] As LLC0424 leads to strong degradation of both NSD2-L and NSD2-S, the phenotypic changes upon LLC0424 treatment result from complete inactivation of NSD2 activity, including adaptor-like function of NSD2-S and SET-domain dependent enzymatic function of NSD2-L. The specific contributions of NSD2 isoforms warrant future investigation. To characterize the genes affected by LLC0424 treatment, we performed global transcriptome analysis of SEM cells treated by DMSO, LLC0424, or LLC0424N. LLC0424 treatment led to significant changes in the transcriptome of SEM cells with over 326 differentially expressed genes. […] We further explored the contribution of NSD2 loss to the phenotype we observed in SEM cells. […] Still, whether and how LLC0424’s modest effect on GSPT1 contributes to the cytotoxic effects remains to be further explored. We also designed and synthesized the negative control LLC0877 bearing the warhead that is devoid of NSD2 binding (SI, Figure S5A).
as §2, with “After incubated with HRP-conjugated secondary antibodies, the membranes were developed with ECL Prime Western Blotting Detection Reagent (cytiva) and imaged on Odyssey Fc Imager (LiCOR Biosciences).” left out

NSD2 = biological target: T3, NSD2 (Homo sapiens, UniProt O96028); experiment: Validation of mechanism of action: pretreatment rescue of LLC0424-mediated NSD2 degradation; format: cell-based
T3 sequence (O96028 211-350 limits assumed): T1 sequence (O96028 211-350 limits assumed)

T2 sequence (P15170 whole entry): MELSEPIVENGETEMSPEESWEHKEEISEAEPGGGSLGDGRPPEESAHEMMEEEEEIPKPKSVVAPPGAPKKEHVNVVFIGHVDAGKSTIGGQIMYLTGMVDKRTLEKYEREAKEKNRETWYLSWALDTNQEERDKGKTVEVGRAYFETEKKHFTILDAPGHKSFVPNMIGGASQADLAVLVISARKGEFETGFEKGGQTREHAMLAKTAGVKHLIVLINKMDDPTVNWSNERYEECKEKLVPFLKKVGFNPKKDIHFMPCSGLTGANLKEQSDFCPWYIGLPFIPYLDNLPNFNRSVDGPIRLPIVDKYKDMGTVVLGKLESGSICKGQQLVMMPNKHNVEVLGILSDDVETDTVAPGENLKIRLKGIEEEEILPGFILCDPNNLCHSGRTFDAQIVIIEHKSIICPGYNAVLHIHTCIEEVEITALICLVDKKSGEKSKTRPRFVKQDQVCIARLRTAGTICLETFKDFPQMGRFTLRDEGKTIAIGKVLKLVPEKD

NSD2 degradation, comparison of degraders ([3]; RPMI-8402 and SEM cells, 0.5 and 2 μM for 24 h or 2 μM for 12 and 24 h): much less active
SMILES: CN1C(=O)CCC(N2C(=O)c3ccc(N4CCC(NC(=O)c5ccc(NC(=O)c6ccc(CN(C(=O)c7ccc8c(c7)OCC(=O)N8)C7CC7)cc6)cc5)CC4)cc3C2=O)C1=O (centres unmarked) [LLC0424N]
formation of cell colonies (RPMI-8402 cells [1]): not | IC50 (growth, cell viability) (RPMI-8402 cells [2]): much less active | differentially expressed genes (transcriptome) (SEM cells [4]): little transcription level changes | IC50 (growth, cell viability) (SEM cells [5]): much less active

GSPT1 degradation by negative control (GSPT1): fast and strong degradation of GSPT1 | NSD2 degradation by negative control ([3]; SI Figure S5B, SEM cells): did not degrade NSD2
SMILES: CC(C)N(Cc1ccc(C(=O)Nc2ccc(C(=O)NC3CCN(c4ccc5c(c4)C(=O)N(C4CCC(=O)NC4=O)C5=O)CC3)cc2)cc1)C(=O)c1ccc2c(c1)OCC(=O)N2 (centres unmarked) [LLC0877]
IC50 (growth, cell viability) (RPMI-8402 cells [2]): lower IC50 values | IC50 (growth, cell viability) (SEM cells [5]): lower IC50 values

SMILES: NS(=O)(=O)OC[C@@H]1C[C@@H](n2ccc3c(N[C@H]4CCc5ccccc54)ncnc32)C[C@@H]1O [MLN4924]
effect of pretreatment on NSD2 protein reduction induced by LLC0424 (NSD2; RPMI-8402 cells, 2 μM LLC0424): rescued the NSD2 protein reduction induced by LLC0424

effect of pretreatment on LLC0424-mediated NSD2 degradation (NSD2; RPMI-8402 and SEM cells, pretreated 2 h, then 2 μM LLC0424 for 12 h): not
SMILES: Cc1ncsc1-c1ccc(CNC(=O)[C@@H]2C[C@@H](O)CN2C(=O)[C@H](C(C)C)N2Cc3ccccc3C2=O)cc1 [VL-285]
